pIC50: −log10 of the molar value. Like-named read-outs stand apart in the source and are kept apart here.

One test deals with HeLa wt cells. Nature of the test: MTT cell viability assay, HeLa wt. It is filed as cell-based. To be noted: Homo sapiens.
The target of the next test is GRASP55 (Homo sapiens, UniProt Q9H8Y8). Nature of the test: CETSA (immunoblot quantification of non-denatured GRASP55). Also on record: endogenous in cells; host or cells: HeLa wt cells. It counts as binding. As to conditions: 100 nM, 6 h, HeLa wt, vs DMSO. As to the method: Adherent cells were washed in the dish once with DPBS and harvested by Trypsin–EDTA (0.25%, Thermo Fisher Scientific, Waltham, MA, USA, #25,200,056) treatment. After addition of 35 mL DPBS, the cells were pelleted by centrifugation (300 rcf, 5 min, 4 °C), and washed twice by re-suspending and pelleting using 45 mL and 1 mL DPBS, respectively, to remove excess trypsin and for transfer into pre-weighed 2 mL Eppendorf tubes to determine the cell pellet wet weights as quality check after centrifugation (300 rcf, 5 min, 4 °C) and complete removal of the supernatant. […]
After temperature treatment, samples were supplemented with lysis buffer (final concentrations: 0.36 U/µL benzonase, 1.5 mM MgCl2, 1 mM Na3VO4, 10 mM NaF, 2.5 mM Na4P2O7, 0.8% w/v NP-40) for 1 h on ice. […] The total protein concentration of the resulting cell extracts containing the fraction of soluble, non-denatured proteins was determined (Pierce 660 nm Protein Assay, BSA as standard). […] The two (37 °C or 50 °C) x ten (concentrations) x three (replicates) = 60 TPP-CCR samples and two (treatment and control) x ten (temperatures) x three (replicates) = 60 TPP-TR samples were analyzed by LC–MS/MS. GRASP55 was additionally quantified from the TPP-TR samples by immunoblotting as described in the respective section. […]

Another test has as its system JUN. Briefly: TPP-TR/RTSA, JUN. It counts as binding, Homo sapiens. As to conditions: 100 nM vs DMSO, 6 h, HeLa wt. Here is the method:
TPP was performed essentially as described, but with major modifications to the TMT labeling sets and statistical data analysis for TPP-TR.
Adherent cells were washed in the dish once with DPBS and harvested by Trypsin–EDTA (0.25%, Thermo Fisher Scientific, Waltham, MA, USA, #25,200,056) treatment. […]
After temperature treatment, samples were supplemented with lysis buffer (final concentrations: 0.36 U/µL benzonase, 1.5 mM MgCl2, 1 mM Na3VO4, 10 mM NaF, 2.5 mM Na4P2O7, 0.8% w/v NP-40) for 1 h on ice. […] The total protein concentration of the resulting cell extracts containing the fraction of soluble, non-denatured proteins was determined (Pierce 660 nm Protein Assay, BSA as standard). […] The two (37 °C or 50 °C) x ten (concentrations) x three (replicates) = 60 TPP-CCR samples and two (treatment and control) x ten (temperatures) x three (replicates) = 60 TPP-TR samples were analyzed by LC–MS/MS. GRASP55 was additionally quantified from the TPP-TR samples by immunoblotting as described in the respective section.
For TPP-CCR, SP3 was performed as described with slight modifications to the original protocol using on average 5 µg total protein per sample and resulting in theoretically 5 µg peptides in 22 µL 50 mM triethylammonium bicarbonate per sample. […] This volume was calculated such that the lowest two temperature samples (36.5 °C and 41.2 °C) contained 10 µg total protein on average. […]

Protocol for HeLa wt cells: Cell viability was measured using the MTT (3-(4,5-dimethylthiazol-2-yl)-2,5-diphenyltetrazolium bromide) assay. HeLa cells were seeded in 96-well plates with a density of 5*10^3 cells/well. […] After the incubation time, 20 µL of a 5 mg/mL MTT stock solution (ROTH, Karlsruhe, Germany, #4022.3) were added to the cells and they were incubated at 37 °C and 5% CO2 in a humidified atmosphere for 30 min. Upon removal of the MTT-containing medium 100 µL DMSO per well were added for extraction of the formazan. Absorbance was measured at 570 nm and 650 nm (reference) with a microplate reader (SynergyMx, BioTek, Winooski, VT, USA). After subtraction of the reference value, the mean of the absorbance of the solvent control was set as 100% and the relative viability was calculated for each sample.
All IC50 values were calculated using GraphPad Prism 7.01.

With `CCCCCC1=C/C(=C/c2[nH]c(-c3ccc[nH]3)cc2OC)N=C1C` [Prodigiosin, prodigiosin], the pIC50 is 6.16 in the test with HeLa wt cells (24 h, Fig. 1B, read-out: IC50 (24 h)); 6.26 in the test on HeLa wt cells (24 h, Fig. 5C (independent of Fig. 1B), read-out: IC50 value wt); 7.11 in the test on HeLa wt cells (72 h, Fig. 1B, read-out: IC50 (72 h)); 7.19 with HeLa wt cells (72 h, Fig. 5C (independent of Fig. 1B), read-out: IC50 value wt). In addition, the “dif GRASP55 (CETSA), melting point difference” value on GRASP55 came to 4.5. Also, the Mean_dTm in the test with JUN is -0.6723.

(Values after article PMC10552397 (Cell Communication and Signaling : CCS, 2023).)
